Data from US10988542B2, “Chimeric antigen receptors with integrated controllable functions” (CELLECTIS, priority 2015, dated 2021).
Like-named read-outs stand apart in the source and are kept apart here. Blank lines part the entries; values can stand above or below the compound they belong to.

Tests used:
[1] = test system: FKBP/FRB-mcCAR and FRB/FKBP-mcCAR constructs; experiment: Rapamycin switch-on: surface detection of mcCAR with FKBP and FRB in the α-chain (flow cytometry); type: cell-based; settings: rapamycin 100 nM, 20 h vs no rapamycin
Excerpt: All constructs originated from the pCLS24707 (SEQ ID NO: 38) which encode the α-chain (SEQ ID NO: 39), β-chain (SEQ ID NO: 40) and γ-chain (SEQ ID NO: 41) of the multichain CAR (mcCAR). The sequences coding for the FRB domain (SEQ ID NO: 2) and FKBP domain (SEQ ID NO: 1) were synthetized de novo (GeneCust). The scFV, hinge-transmembrane-intracytoplasmic alpha chain domain, the FRB and the FKBP were further amplified by PCR to generate golden gate assembly compatible fragments (SEQ ID NO: 42 to 45). In addition an FRB-FKBP and an FKBP-FRB fragment were generated (SEQ ID NO: 46 to 47) using a four-EAAAR-linker (SEQ ID NO: 19) or a −GS-4x-EAAAR-linker (SEQ ID NO: 20) and standard molecular biology procedures. […]
All individual chains were amplified by PCR using oligo pairs α-chain-F/α-chain-R, β-chain-F/β-chain-R and γ-chain-F/γ-chain-R (SEQ ID NO: 56 to 61) prior to mRNA synthesis. mRNA encoding the different α-chains, β-chain, γ-chain were in vitro transcribed from the PCR product and polyadenylated using the mMessage mMachine T7 Ultra kit (Life technologies) following the manufacturer's instructions. RNAs were purified with RNeasy columns (Qiagen), eluted in cytoporation medium T and quantified by measuring absorbance at 260 nm using a Nanodrop ND-1000 spectrophotometer. […]

[2] = biological target: T1, FKBP-FRB* mcCAR (Homo sapiens, UniProt P62942); experiment: Competition between AP21967 and tacrolimus, surface presentation of engineered CAR; type: cell-based; settings: AP21967 10 nM fixed, tacrolimus 0-500 nM, 20 hours
T1 construct: expressed in transfected cells; host or cells: T cells, mRNA electroporation

[3] = test system: Daudi CD19 positive; experiment: Flow cytometry-based cytotoxicity assay of FKBP-FRB* mcCAR CD19 T-cells with AP21967; type: cell-based; settings: for EC50: Homo sapiens, Daudi, dose response 0, 1, 5, 10, 33, 100 nM
Description: The cytolytic activity of engineered T-cells endowed with the FKBP-FRB* mcCAR CD19 from example 2, was assessed using a flow cytometry-based cytotoxicity assay. In this assay target cells presenting the CAR target antigen (Daudi CD19 positive) are labelled with CellTrace™ CFSE or and control cells with CellTrace™ violet.
The whole cell population was recovered, washed in PBS and labeled with eFluor780 viability marker before being fixed by 2% PFA. Fixed cells were analyzed by flow cytometry to determine their viability. Flow cytometry and data analysis were performed as described in example 1.
The level of targeted cell killing also correlated with the level of CAR detection (FIG. 9).

[4] = biological target: T2, FKBP-FRB* scCAR (Homo sapiens, UniProt P62942); experiment: AP21967 switch-on scCAR surface detection (Fc-tagged recombinant CD123); type: cell-based; settings: FKBP-FRB* domains; FIG. 7
T2 construct: expressed in transfected cells
Excerpt: The CAR extracellular domains (alpha chain) presented in example 2 were used as template to prepare plasmid DNA encoding single chain CARs (scCARs). The CD8 alpha transmembrane domain (SEQ ID NO: 32), the intracytoplasmic signalling region of the ζ-chain of the CD3-T cell receptor (SEQ ID NO: 28) and the signalling domains from co-stimulatory 4-1BB (CD137) (SEQ ID NO:31) were used to complete the CARs. scCARs were assemble by Golden Gate cloning using round of restriction and ligation, according to standard molecular biology procedures, leading to pCLS27572 (FKBP-FRB*) (SEQ ID NO:65), pCLS27603 (FKBP) (SEQ ID NO:66), pCLS27604 (FRB*) (SEQ ID NO:67). The respective amino acid sequences encoded by these constructs are shown in SEQ ID NOs: 68 to 70.
Primary labelling for the detection of the scCARs was performed with Fc-tagged recombinant CD123 (Lake Pharma) in PBS FBS2%, EDTA 2 mM, azide 0.1% for 20 min at 4° C. followed by a two washing steps with PBS FBS2% EDTA 2 mM azide 0.1%. […] Following the extracellular labelling, the cell viability was monitored using the efluor450 or efluor780 (ebioscience) in PBS for 20 min 4° C., followed by a washing step with PBS FBS2% EDTA 2 mM azide 0.1% and fixed in PFA 2%.

[5] = biological target: T3, FKBP-FRB* mcCAR CD19 (Homo sapiens, UniProt P62942); experiment: AP21967 switch-on: surface detection and dose response, CD19 targeting engineered CAR (Fab'2 detection); type: cell-based
T3 construct: expressed in transfected cells; host or cells: T cells, mRNA electroporation

[6] = test system: MOLM13-Luc tumour cells; experiment: Antitumor activity of inducible CD123 CAR+ T cells with AP21967 in NOG mice injected with MOLM13-Luc; type: in vivo; settings: switch-on mcCAR-CD123 T cells IV plus AP21967 3 mg/kg/inj IP twice daily; FIG. 11
Description: The anti-tumor activity of human T-cells expressing a switch-on mcCAR-CD123 as described in Example 1, was assessed in NOG mice intravenously injected with MOLM13-Luc tumour cells.
To establish the MOLM13-Luc cell line, MOLM13 cells (DSMZ ACC 554) have been transduced with a lentivirus encoding the GFP and the firefly luciferase (amsbio LVP438-PBS). The GFP-positive cells have been selected with Neomycin (ref 10131-027, Gibco, Life Technologies, Saint-Aubin, France). MOLM13-Luc cells are grown in suspension at 37° C. in a humidified atmosphere (5% CO2, 95% air) into culture medium RPMI 1640 containing 2.05 mM L-glutamine (ref: BE12-702F, Lonza) supplemented with 15% fetal bovine serum (ref: 3302, Lonza, Verviers, Belgium), 100 U/mL Penicillin and 100 μg/mL Streptomycin (ref: DE17-602E, Lonza). The cells are counted in a hemocytometer and their viability is assessed by 0.25% trypan blue exclusion assay and are passed twice weekly (0.8 millions/mL) in fresh culture medium.
The day of injection to mice, frozen human T-cells transformed with the switch-on mcCAR-CD123 CAR are assessed to be within a range of 1-2.106 live cells per mL. […]
Mice were monitored daily with respect to their body weight measurements, clinical and mortality records, and treatment were recorded on Vivo Manager® database (Biosystemes, Dijon, France).

T1 sequence (P62942 with tags, fused parts or gaps): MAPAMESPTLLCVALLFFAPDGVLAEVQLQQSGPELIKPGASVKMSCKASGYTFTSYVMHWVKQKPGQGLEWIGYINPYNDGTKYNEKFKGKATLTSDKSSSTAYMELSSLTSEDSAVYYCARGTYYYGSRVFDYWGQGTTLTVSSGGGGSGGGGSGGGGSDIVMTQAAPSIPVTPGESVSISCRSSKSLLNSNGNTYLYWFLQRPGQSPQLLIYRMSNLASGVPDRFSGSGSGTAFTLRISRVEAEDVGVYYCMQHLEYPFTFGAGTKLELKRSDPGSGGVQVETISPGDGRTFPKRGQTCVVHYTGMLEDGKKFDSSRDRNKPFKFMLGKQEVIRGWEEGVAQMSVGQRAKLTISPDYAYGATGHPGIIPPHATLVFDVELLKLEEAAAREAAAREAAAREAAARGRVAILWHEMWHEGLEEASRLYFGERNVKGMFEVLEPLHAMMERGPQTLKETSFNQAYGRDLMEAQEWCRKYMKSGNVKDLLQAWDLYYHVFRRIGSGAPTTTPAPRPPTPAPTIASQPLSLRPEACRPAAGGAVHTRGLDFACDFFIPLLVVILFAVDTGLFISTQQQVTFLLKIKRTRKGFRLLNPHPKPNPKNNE
T1 sequence (Q01362 with tags, fused parts or gaps partner limits assumed): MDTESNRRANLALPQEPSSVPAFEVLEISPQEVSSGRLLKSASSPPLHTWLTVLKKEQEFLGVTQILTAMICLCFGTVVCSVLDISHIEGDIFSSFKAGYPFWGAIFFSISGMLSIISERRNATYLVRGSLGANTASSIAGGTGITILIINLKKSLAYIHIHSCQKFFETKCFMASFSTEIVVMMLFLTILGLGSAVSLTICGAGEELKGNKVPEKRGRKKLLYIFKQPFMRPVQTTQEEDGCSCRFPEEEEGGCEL
T1 sequence (P30273 with tags, fused parts or gaps partner limits assumed): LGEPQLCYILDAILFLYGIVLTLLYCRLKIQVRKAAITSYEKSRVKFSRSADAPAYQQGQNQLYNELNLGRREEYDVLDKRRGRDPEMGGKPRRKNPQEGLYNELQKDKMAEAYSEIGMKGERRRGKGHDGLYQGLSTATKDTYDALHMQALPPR
T3 sequence (Q01362 with tags, fused parts or gaps partner limits assumed): as the sequence (Q01362 with tags, fused parts or gaps partner limits assumed) above
T3 sequence (P30273 with tags, fused parts or gaps partner limits assumed): as the sequence (P30273 with tags, fused parts or gaps partner limits assumed) above
T2 sequence (P62942 with tags, fused parts or gaps): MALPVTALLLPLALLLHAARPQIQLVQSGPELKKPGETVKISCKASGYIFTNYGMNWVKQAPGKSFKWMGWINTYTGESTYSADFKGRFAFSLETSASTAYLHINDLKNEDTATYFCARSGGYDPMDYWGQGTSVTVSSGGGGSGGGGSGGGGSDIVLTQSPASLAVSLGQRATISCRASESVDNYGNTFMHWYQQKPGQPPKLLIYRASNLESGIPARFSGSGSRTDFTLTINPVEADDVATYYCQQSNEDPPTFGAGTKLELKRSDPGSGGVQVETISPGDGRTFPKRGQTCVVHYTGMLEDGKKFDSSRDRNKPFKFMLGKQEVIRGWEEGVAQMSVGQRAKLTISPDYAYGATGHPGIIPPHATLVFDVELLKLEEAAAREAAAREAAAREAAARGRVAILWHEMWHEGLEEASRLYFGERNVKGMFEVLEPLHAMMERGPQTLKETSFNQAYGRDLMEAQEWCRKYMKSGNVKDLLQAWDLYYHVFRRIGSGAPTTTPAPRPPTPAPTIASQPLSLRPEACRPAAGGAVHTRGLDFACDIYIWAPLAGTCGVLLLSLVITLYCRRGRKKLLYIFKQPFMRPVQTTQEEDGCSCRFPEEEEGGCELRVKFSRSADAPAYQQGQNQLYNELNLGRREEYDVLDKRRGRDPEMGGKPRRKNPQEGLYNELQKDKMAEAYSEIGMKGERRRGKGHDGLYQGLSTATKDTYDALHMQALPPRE

Structure (SMILES): CO[C@H]1C[C@@H]2CC[C@@H](C)[C@@](O)(O2)C(=O)C(=O)N2CCCC[C@H]2C(=O)O[C@H]([C@H](C)C[C@@H]2CC[C@@H](O)[C@H](OC)C2)CC(=O)[C@H](C)/C=C(\C)[C@@H](O)[C@@H](OC)C(=O)[C@H](C)C[C@H](C)/C=C/C=C/C=C/1C [rapamycin]
- improvement of surface detection considering the MFI [1]: up to 15 fold
- improvement of surface detection considering the percentage of positive cell [1]: ≤ 3 fold

- surface presentation/detection of the engineered CAR with increasing tacrolimus [2]: decreased surface detection
Structure (SMILES): C=CC[C@@H]1/C=C(\C)C[C@H](C)C[C@H](OC)[C@H]2O[C@@](O)(C(=O)C(=O)N3CCCC[C@H]3C(=O)O[C@H](/C(C)=C/[C@@H]3CC[C@@H](O)[C@H](OC)C3)[C@H](C)[C@@H](O)CC1=O)[C@H](C)C[C@@H]2OC [tacrolimus]
- surface presentation/detection of the engineered CAR with increasing tacrolimus ([2]; listed as Tacrolimus): possibility to tune the surface presentation

- surface exposition of scCAR in presence of AP21967 [4]: improved surface exposition
- surface exposition of mcCAR in presence of AP21967 ([5]; FKBP-FRB* domains in α-chain, FIG. 4): improved surface exposition
- concentration of maximum signal induction ([5]; dose response, surface detection): 100 nM
Structure (SMILES): CO[C@H]1[C@@H](O)[C@H](C)C[C@H](C)/C=C/C=C/C=C(\C)[C@@H](c2c[nH]c3c(C)cccc23)C[C@@H]2CC[C@@H](C)[C@@](O)(O2)C(=O)C(=O)N2CCCC[C@H]2C(=O)O[C@H]([C@H](C)C[C@@H]2CC[C@@H](O)[C@H](OC)C2)C[C@H](O)[C@H](C)/C=C(\C)[C@H]1O [AP21967]
- level of target cell killing versus AP21967 dose ([3]; 0, 1, 5, 10, 33, 100 nM, FIG. 5B): correlated
- cytolytic activity of CAR T cells in presence of AP21967 ([3]; AP21967 100 nM vs ethanol, E/T 20:1, 5 h, FIG. 5A): improved switched-on cytolytic activity
- EC50 ([3]; FIG. 5B, read-out: EC50 of cytolytic capacity (approximate)): ~10 nM
- EC50 ([3]; FIG. 5B, read-out: EC50 of cytolytic capacity (value in parentheses)): 12.7 nM
- survival of the mice [6]: increased the survival
